According to PubChem BioAssay AID1996:
In brackets after ≈: the same amount, converted by molar mass.

Settings: buffer; pH 7.4; 200.0 µM

| solubility kinetic | SMILES |
| --- | --- |
| 25.2 µg/mL (≈ 101 µM) | CCCC(C)NC(=S)Nc1cc(C)cc(C)c1 (stereo unspecified) |
| > 46.9 µg/mL | COc1ccc(-n2c(C)c(C)c3c(NCCO)ncnc32)cc1 |
| > 37.1 µg/mL | S=C(Nc1cccnc1)NC1CC2CCC1C2 (stereo unspecified) |
| 2.4 µg/mL (≈ 7.61 µM) | COc1ccc(CNC(=O)CCCSc2ccccc2)cc1 |
| 21.5 µg/mL (≈ 68.9 µM) | O=C(NCCSCc1ccc(Cl)cc1)c1cccs1 |
| > 32.9 µg/mL | CN1C(N)=NC(=O)/C1=C/c1ccc(F)cc1 |
| 3.8 µg/mL (≈ 11.5 µM) | CN(C)c1ccc(C(=O)OCc2cc(=O)n3ccsc3n2)cc1 |
| 18.3 µg/mL (≈ 46.4 µM) | COc1cc2ccccc2cc1C(=O)NC(=S)Nc1cccc(C(=O)O)c1C |
| > 47 µg/mL | O=C(O)c1ccc(Nc2nc(-c3cccnc3)cs2)cc1O |
| 0.7 µg/mL (≈ 2.74 µM) | COC(=O)NC1c2ccccc2Oc2ccccc21 |
| 10.4 µg/mL (≈ 39 µM) | CC(C)C(=O)Nc1ccc(N2CCCC2)c(Cl)c1 |
| > 45 µg/mL | CC(NC(=O)COC(=O)c1ccc[nH]c1=O)c1ccccc1 (stereo unspecified) |
| > 55.6 µg/mL | CC(=O)NCCc1nc2cc(NC(=O)c3ccccc3Cl)ccc2n1C |
| 34.4 µg/mL (≈ 129 µM) | Cc1ccc(NS(=O)(=O)c2ccc(F)cc2)nc1 |
| 38 µg/mL (≈ 120 µM) | CSc1nsc(SCC(=O)Nc2ccccc2F)n1 |
| 3 µg/mL (≈ 12.2 µM) | COc1ccc(Nc2ccc([N+](=O)[O-])cn2)cc1 |
| 0.9 µg/mL (≈ 2.76 µM) | CC(C)c1nc2oc3c(N(C)CCO)ncnc3c2c2c1CCC2 |
| 12.9 µg/mL (≈ 36.2 µM) | Cc1ccc(N2C(=O)N(c3ccc(C)cc3)C3CS(=O)(=O)CC32)cc1 (stereo unspecified) |
| 25.9 µg/mL (≈ 101 µM) | Cc1cc(OCCN2CCOCC2)ccc1Cl |
| 0.4 µg/mL (≈ 1.55 µM) | COc1ccccc1NC(=O)Nc1cccc(C)n1 |
| > 46.4 µg/mL | CCOC(=O)Cc1csc(NC(=O)c2c(C)noc2C)n1 |
| 15.6 µg/mL (≈ 62.5 µM) | Cc1c(C(=O)N2CCC2)oc2ccc(Cl)cc12 |
| 1.9 µg/mL (≈ 6.37 µM) | Cc1ccc(CCC(=O)Nc2cc(Cl)ccc2Cl)o1 |
| > 44.9 µg/mL | CC(C)CCNC(=O)c1ccc2c(c1)ncn2C1CCCC1 |

| solubility kinetic | SMILES |
| --- | --- |
| > 47.5 µg/mL | Cc1ccc(OCC(=O)NCCCNC(=O)c2ccco2)cc1 |
| > 52.1 µg/mL | Cc1ccc(-n2nc3c(c2NC(=O)C(C)C)CS(=O)(=O)C3)c(C)c1 |
| > 34.5 µg/mL | CC1(C)COCN1C(=O)c1ccc(C#N)cc1 |
| > 52.6 µg/mL | Cc1onc(-c2c(F)cccc2Cl)c1C(=O)N(C)C1CCCCC1 |
| 2.8 µg/mL (≈ 8.45 µM) | Cc1cc(C)c(S(=O)(=O)Nc2ccc3[nH]c(=O)[nH]c3c2)c(C)c1 |
| 42.1 µg/mL (≈ 149 µM) | O=C(/C=C/c1ccc2c(c1)OCO2)NCc1ccncc1 |
| 2.7 µg/mL (≈ 9.29 µM) | CC(=O)c1c(C)[nH]c(C(=O)Nc2ccccc2Cl)c1C |
| < 0.3 µg/mL | Cc1ccc2cccc(NS(=O)(=O)c3ccccc3)c2n1 |
| 36.9 µg/mL (≈ 128 µM) | COc1ccc(Nc2ncnc3sccc23)cc1OC |
| 48.2 µg/mL (≈ 135 µM) | CCOc1ccccc1NC(=O)N1CCCC1C(=O)NCc1ccco1 (stereo unspecified) |
| > 51.4 µg/mL | Cc1cc(C)cc(NC(=O)C2CCN(C(=O)c3cccs3)CC2)c1 |
| 41.6 µg/mL (≈ 148 µM) | FC(F)(F)c1cc(N2CCNCC2)c2ccccc2n1 |
| > 29.3 µg/mL | CCC(=O)c1c(NC)cc(C)oc1=O |
| 1.1 µg/mL (≈ 3.21 µM) | Oc1ccc(/C=C/c2ccc3cccc(O)c3n2)cc1Br |
| 30.8 µg/mL (≈ 127 µM) | Cc1ccc(-c2[nH]c(=S)[nH]c(=O)c2C#N)cc1 |
| 15 µg/mL (≈ 42.6 µM) | COc1cc2c(cc1OC)CN(C(=O)COc1ccccc1C#N)CC2 |
| 49.4 µg/mL (≈ 132 µM) | COc1ccccc1-c1noc(-c2ccccc2C(=O)NCc2ccco2)n1 |
| < 0.4 µg/mL | O=C(NC(=O)c1c(F)cccc1F)Nc1ccccc1SC(F)F |
| 7.3 µg/mL (≈ 22.1 µM) | Cc1ccc2nc(COC(=O)c3ccc(Cl)nc3)cc(=O)n2c1 |
| 35.4 µg/mL (≈ 104 µM) | O=C(NCCNC1CCC(c2ccccc2)CC1)c1ccc(F)cc1 (stereo unspecified) |
| 48.4 µg/mL (≈ 144 µM) | CCOc1cc(OCC)cc(C(=O)NCCCN2CCOCC2)c1 |
| 18.3 µg/mL (≈ 74 µM) | O=C(Cc1ccc([N+](=O)[O-])cc1)Nc1ccon1 |
| > 49.1 µg/mL | COc1ccc(OCC(O)CN2C(=O)c3ccccc3C2=O)cc1 (stereo unspecified) |
| 1.1 µg/mL (≈ 3.13 µM) | CCN1C(=O)/C(=C\N2CCN(C(=O)c3ccco3)CC2)SC1=S |

| solubility kinetic | SMILES |
| --- | --- |
| > 47 µg/mL | C/C(=N\NC(=O)CCC(=O)NCc1ccccc1)c1ccco1 |
| > 59.8 µg/mL | CC1(C2CC2)NC(=O)N(CC(=O)NCC(=O)Nc2ccc(F)c(F)c2F)C1=O (stereo unspecified) |
| 8.1 µg/mL (≈ 21.6 µM) | OC(CN1CCN(Cc2ccccc2)CC1)c1ccc(Br)cc1 (stereo unspecified) |
| > 50.6 µg/mL | O=C(CSc1ncnc2ccccc12)NC1CCS(=O)(=O)C1 (stereo unspecified) |
| > 52.9 µg/mL | COc1cc(NC(=O)CCc2c(C)noc2C)c(Cl)cc1C(=O)O |
| 16.7 µg/mL (≈ 51.3 µM) | Cc1coc2cc3oc(=O)c(CCC(=O)NC4CC4)c(C)c3cc12 |
| > 37.8 µg/mL | NC(=S)Nc1cccc(-c2n[nH]c(=S)o2)c1 |
| 1.3 µg/mL (≈ 4.36 µM) | O=C(NCc1ccccc1)NCC12CC3CC(CC(C3)C1)C2 |
| 20 µg/mL (≈ 39.9 µM) | COc1ccccc1NS(=O)(=O)c1ccc(C(=O)NCC(c2cccs2)N2CCOCC2)cc1 (stereo unspecified) |
| > 49.4 µg/mL | O=C(NCC1CCCO1)c1cccnc1NCc1ccc(F)cc1 (stereo unspecified) |
| 2.2 µg/mL (≈ 5.73 µM) | Cc1cc(Cl)c2oc(C(=O)N3CCC(O)(c4ccccc4)CC3)c(C)c2c1 |
| 33 µg/mL (≈ 133 µM) | O=C(/C=C/c1ccco1)Nc1cccnc1Cl |
| < 0.2 µg/mL | CCc1ccc2oc(C(=O)Nc3nonc3C)c(C)c2c1 |
| 44.1 µg/mL (≈ 140 µM) | Cc1ccc(C(=O)NCCCNC(=O)c2ccccc2F)cn1 |
| > 49.5 µg/mL | O=c1[nH]cnc(O)c1C(c1ccc(F)cc1)c1c(O)nc[nH]c1=O |
| 10.3 µg/mL (≈ 37.7 µM) | CCOC(=O)c1[nH]cnc1C(=O)Nc1ccccc1C |
| 45.4 µg/mL (≈ 129 µM) | O=C(NCCCNC(=O)c1cc(Cl)ccc1Cl)c1cnccn1 |
| > 43.4 µg/mL | O=c1c2ccccc2[nH]c(=S)n1CCN1CCCCC1 |
| 19.8 µg/mL (≈ 61.4 µM) | O=C(c1ccc(Br)s1)N1CCc2ccccc2C1 |
| 27.2 µg/mL (≈ 89.1 µM) | CCc1noc(C)c1C(=O)Nc1nc2ccc(F)cc2s1 |
| > 43 µg/mL | CCC(=O)OCC(=O)Nc1cc([N+](=O)[O-])ccc1Cl |
| 25.1 µg/mL (≈ 108 µM) | Nc1ccc2nc3c(c(Cl)c2c1)CCCC3 |
| 3 µg/mL (≈ 8.56 µM) | CCC(=O)N(Cc1cc2cc(OC)ccc2[nH]c1=O)c1ccc(C)cc1 |
| > 35.6 µg/mL | CC(C)(C)C(=O)COc1ccccc1[N+](=O)[O-] |

| solubility kinetic | SMILES |
| --- | --- |
| > 44.1 µg/mL | O=[N+]([O-])c1ccc2ccn(C3OCC(O)C(O)C3O)c2c1 (stereo unspecified) |
| 46.2 µg/mL (≈ 142 µM) | CC(NC(=O)CCC(=O)NC(C)c1ccccc1)c1ccccc1 (stereo unspecified) |
| > 51.4 µg/mL | CC1(C)Cn2c(nc(=O)c3c2NCN(CCc2ccccc2)C3)S1 |
| 41.8 µg/mL (≈ 121 µM) | COc1ccc2oc(C(=O)OCC(=O)N3CCC(C)CC3)c(C)c2c1 |
| 49.4 µg/mL (≈ 143 µM) | Fc1ccccc1NC(=S)Nc1ccc(CN2CCOCC2)cc1 |
| > 49.4 µg/mL | Cc1cccn2c(=O)c(C=O)c(N3CCC4(CC3)OCCO4)nc12 |
| > 48.7 µg/mL | CCN1C(=O)c2ccc(C(=O)Nc3ccc(O)cc3C)cc2C1=O |
| 0.9 µg/mL (≈ 2.91 µM) | Cc1c(OCC(N)=O)ccc2c(-c3ccccc3)cc(=O)oc12 |
| 7.6 µg/mL (≈ 25.6 µM) | O=C(Nc1ccc(Br)cc1)N1CCCCCC1 |
| > 45.1 µg/mL | COCCCNC(=O)c1cc(C(=O)Cc2ccccc2)c[nH]1 |
| > 40 µg/mL | O=C(NCC(=O)N1CCCC1)c1ccc(Cl)cc1 |
| > 42.8 µg/mL | COc1ccccc1CNC(=O)c1ccc2c(c1)OCO2 |
| 1.5 µg/mL (≈ 4.35 µM) | COc1ccc(C2c3ccsc3CCN2C(=O)NC(C)(C)C)cc1 (stereo unspecified) |
| 10.7 µg/mL (≈ 22.9 µM) | CC(=O)Nc1ccc(OCC(=O)Nc2ccc(Cl)c(S(=O)(=O)N3CCOCC3)c2)cc1 |
| < 0.2 µg/mL | CC(=O)c1cc(C#N)c(SCc2ccc([N+](=O)[O-])cc2)nc1C |
| 22.1 µg/mL (≈ 78.8 µM) | COc1ccc(Nc2cc(C)c3c(O)cccc3n2)cc1 |
| 0.7 µg/mL (≈ 2.27 µM) | COc1ccc(C(=O)Nc2ccc3ccccc3n2)cc1OC |
| > 37.8 µg/mL | CC1CCCCN1C(=S)NC(=O)c1ccco1 (stereo unspecified) |
| 1.3 µg/mL (≈ 3.8 µM) | CSc1nc(C(C)C)ccc1CNC(=O)CC(C)c1ccccc1 (stereo unspecified) |
| 21 µg/mL (≈ 53.5 µM) | COc1ccc(CCC(=O)OCC(=O)Nc2sccc2C(N)=O)cc1OC |
| 11.9 µg/mL (≈ 36.9 µM) | CC(OC(=O)CCc1nc2ccccc2[nH]c1=O)c1ccccc1 (stereo unspecified) |
| 2.2 µg/mL (≈ 6.28 µM) | N#CCCSc1ccccc1NC(=O)c1cc(=O)c2ccccc2o1 |
| 38.6 µg/mL (≈ 103 µM) | COc1c(N2CCN[C@H](C)C2)c(F)cc2c(=O)c(C(=O)O)cn(C3CC3)c12 |
| 6.1 µg/mL (≈ 16.7 µM) | O=C(Nc1nccs1)c1ccc(N2C(=O)[C@@H]3[C@H](C2=O)[C@H]2C=C[C@@H]3C2)cc1 |

| solubility kinetic | SMILES |
| --- | --- |
| > 49.2 µg/mL | Cc1cc(C(=O)OCC(=O)Nc2ccccc2C(F)(F)F)on1 |
| > 43.6 µg/mL | CCn1c(CCc2ccccc2)nnc1SCC(N)=O |
| 25.7 µg/mL (≈ 142 µM) | OCCNC(=S)c1ccccc1 |
| 3.2 µg/mL (≈ 8.06 µM) | O=C(CCc1nc2ccccc2c(=O)[nH]1)N1CCN(c2ccccc2Cl)CC1 |
| < 0.7 µg/mL | Cc1noc(C)c1C(=O)OCC(=O)C12CC3CC(CC(C3)C1)C2 |
| 1.7 µg/mL (≈ 6.17 µM) | COC(=O)c1sc(-c2ccccc2)cc1NC(C)=O |
| 4.1 µg/mL (≈ 14.4 µM) | Cc1cc2oc(=O)cc(CN3CCC(C)CC3)c2cc1C |
| > 51.4 µg/mL | CC1C(=O)N2CCCc3cc(NS(=O)(=O)c4ccccc4)cc1c32 (stereo unspecified) |
| 1.1 µg/mL (≈ 3.54 µM) | COc1ccc2[nH]c(C(=O)Nc3ccc4c(c3)OCO4)cc2c1 |
| > 44.3 µg/mL | Cc1ccc(N2C(=O)CN=C2Nc2nc(C)cc(C)n2)cc1 |
| 31.7 µg/mL (≈ 131 µM) | O=C(c1ccccc1Cl)N1CCSCC1 |
| 28.7 µg/mL (≈ 109 µM) | CCCS(=O)(=O)c1csc(C(=O)OC)c1N |
| 18.2 µg/mL (≈ 56.1 µM) | O=[N+]([O-])c1ccccc1OCCCOc1cccc2cccnc12 |
| 7 µg/mL (≈ 20.1 µM) | COc1ccc(CC(=O)OCC(=O)Nc2cc(Cl)ccc2C)cc1 |
| 17.2 µg/mL (≈ 59.9 µM) | Cc1ccc(C(=O)N2CCCc3ccccc32)c(F)c1F |
| 25.9 µg/mL (≈ 123 µM) | Nc1cccc(-c2cn3cccnc3n2)c1 |
| 8.6 µg/mL (≈ 31.3 µM) | Cc1cc(C)nc(NC(=O)Cc2ccc(Cl)cc2)c1 |
| 41.1 µg/mL (≈ 149 µM) | Cc1cc(C)nc(N2CCCC(C(=O)NC(C)C)C2)n1 (stereo unspecified) |
| < 0.2 µg/mL | O=C(Nc1nc(-c2ccncc2)cs1)c1ccc(F)cc1 |
| < 0.2 µg/mL | CCn1cc(C(=O)Nc2cccc(C)c2)c(=O)c2ccc(C)nc21 |
| 31.1 µg/mL (≈ 119 µM) | COC(=O)CSC(=S)N1C(C)CCCC1C (stereo unspecified) |

| SMILES | solubility kinetic |
| --- | --- |
| NC(Cc1ccccc1)c1nc(-c2ccccc2)no1 (stereo unspecified) | > 39.8 µg/mL |
| Cc1cnc(NC(=O)CN2CCCCC2)s1.[O-][Cl+3]([O-])([O-])O | 24.7 µg/mL |
| CC1NCCC2(O)CCCCC12 (stereo unspecified) | > 25.4 µg/mL |
| Cc1ccc(C(=O)c2cc(Br)ccc2N)cc1 | 2.9 µg/mL (≈ 9.99 µM) |
